The record followed here is patent US20160151337A1, “ANNELATED PYRROLES AND THEIR USE AS CRAC INHIBITORS” (Grünenthal GmbH, priority 2013, published 2016).

One assay addresses T1, CRAC channel (Homo sapiens, UniProt Q96D31).
T1 construct: endogenous in cells; host or cells: HEK293 (ECACC), untransfected
Put plainly: HEK Calcium Influx Assay (FLIPR), inhibition of store-operated Ca2+ entry after thapsigargin store depletion. Particulars: 10 μM compound, HEK293 cells, read-out: % inhib. [@ 10 μM] FLIPR. It counts as cell-based. In short, it runs like this:
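HEK293 cells loaded with Calcium-4 dye in Ca2+-free HBS (pH 7.4), stores depleted with 2 μM thapsigargin for 10 min (100 μM EGTA); after 3 mM CaCl2 re-addition and 15 min steady-state, compounds added and FLIPR signal averaged 9.5–10 min post-dose. IC50 from 8-point 1:3.16 dilutions from 10 μM, normalised to DMSO and non-depleted wells.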

In assay [1] the test system is Interleukin-2 (IL-2) production/release in Jurkat T cells. Nature of the assay: Jurkat IL-2 Production Assay (PHA-stimulated, IL-2 AlphaLisa). It counts as cell-based. As to conditions: Homo sapiens, PHA 15 μg/ml, 22 h, inhibition of IL-2 production. In short, it runs like this: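 Jurkat E6-1 cells (5*10^5/well, DMEM/F12 with 10% FCS) pretreated 30 min with compound, then stimulated 22 h with 15 μg/ml PHA at 37 °C. IC50 from 8-point 1:3.16 dilution starting at 10 μM.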
(In general: In Alpha technology, singlet oxygen from a donor bead excites a nearby acceptor bead.)

T1 sequence (Q96D31 whole entry): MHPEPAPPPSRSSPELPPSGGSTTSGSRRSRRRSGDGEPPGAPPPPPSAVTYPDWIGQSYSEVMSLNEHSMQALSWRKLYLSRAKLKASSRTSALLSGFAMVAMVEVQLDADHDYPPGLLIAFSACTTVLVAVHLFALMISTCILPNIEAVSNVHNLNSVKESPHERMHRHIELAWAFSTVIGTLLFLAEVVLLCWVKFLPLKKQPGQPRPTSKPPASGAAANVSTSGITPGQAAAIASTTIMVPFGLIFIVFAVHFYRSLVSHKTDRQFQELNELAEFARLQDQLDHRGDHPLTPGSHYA

With `Cc1sc(S(C)(=O)=O)nc1N1CCc2[nH]c(-c3c(F)cccc3F)cc2C1` [Example 133, 4-[2-(2,6-Difluoro-phenyl)-4,5,6,7-tetrahydro-1H-pyrrolo[3,2-c]pyridin-5-yl]-5-methyl-2-methylsulfonyl-thiazole], the inhibition at 10 µM on CRAC channel is above 70%. The IC50 in assay [1] is 0.5 to 1 µM.

For `Cc1cc(C(F)(F)F)ncc1N1CCc2[nH]c(C3CCCOC3)cc2C1` (stereo not drawn) [Example 134, 5-[4-Methyl-6-(trifluoromethyl)-pyridin-3-yl]-2-tetrahydro-pyran-3-yl-4,5,6,7-tetrahydro-1H-pyrrolo[3,2-c]pyridine], the inhibition at 10 µM on CRAC channel was above 70%. Also, the IC50 in assay [1] lay in the range of 1 to 5 µM.

Turning to `Cc1cc(C)c(-c2cc3c([nH]2)CCN(c2cnc(C(F)(F)F)cc2C)C3)cn1` [Example 135, 2-(4,6-Dimethyl-pyridin-3-yl)-5-[4-methyl-6-(trifluoromethyl)-pyridin-3-yl]-4,5,6,7-tetrahydro-1H-pyrrolo[3,2-c]pyridine], on CRAC channel, the inhibition at 10 µM was below 50%. Besides, the IC50 in assay [1] is 0.5 to 1 µM.

Take `Cc1cc(S(=O)(=O)NCC(F)(F)F)ccc1N1CCc2[nH]c(-c3c(F)cccc3F)cc2C1` [Example 136, 4-[2-(2,6-Difluoro-phenyl)-4,5,6,7-tetrahydro-1H-pyrrolo[3,2-c]pyridin-5-yl]-3-methyl-N-(2,2,2-trifluoro-ethyl)-benzenesulfonic acid amide]: on CRAC channel, the inhibition at 10 µM was below 50%. The IC50 in assay [1] is 1 to 5 µM.

Consider `COC1(c2cc(N3CCc4[nH]c(-c5c(F)cccc5F)cc4C3)n(C)n2)CC1` [Example 137, 2-(2,6-Difluoro-phenyl)-5-[5-(1-methoxy-cyclopropyl)-2-methyl-2H-pyrazol-3-yl]-4,5,6,7-tetrahydro-1H-pyrrolo[3,2-c]pyridine], for which the inhibition at 10 µM at CRAC channel is above 70%. Further, the IC50 in assay [1] lay in the range of 1 to 5 µM.

For the compound `COc1cc(OC(F)F)ncc1N1CCc2[nH]c(-c3c(F)cccc3F)cc2C1` [Example 140, 5-[6-(Difluoro-methoxy)-4-methoxy-pyridin-3-yl]-2-(2,6-difluoro-phenyl)-4,5,6,7-tetrahydro-1H-pyrrolo[3,2-c]pyridine], on CRAC channel, the inhibition at 10 µM is above 70%. Moreover, the 50% inhibitory concentration (IC50) in assay [1] was below 0.5 µM.

With `Cc1cc(C(F)(F)F)ncc1N1CCc2[nH]c(-c3cncc(F)c3C)cc2C1` [Example 141, 2-(5-Fluoro-4-methyl-pyridin-3-yl)-5-[4-methyl-6-(trifluoromethyl)-pyridin-3-yl]-4,5,6,7-tetrahydro-1H-pyrrolo[3,2-c]pyridine], the inhibition at 10 µM at CRAC channel was above 70%. Further, in assay [1], the IC50 is below 0.5 µM.

Turning to `Cc1cc(S(C)(=O)=O)ncc1N1CCc2[nH]c(-c3c(F)cccc3F)c(F)c2C1` [Example 142, 2-(2,6-Difluoro-phenyl)-3-fluoro-5-(4-methyl-6-methylsulfonyl-pyridin-3-yl)-4,5,6,7-tetrahydro-1H-pyrrolo[3,2-c]pyridine], the inhibition at 10 µM at CRAC channel is above 70%. The IC50 in assay [1] was below 0.5 µM.

Take `CCOc1cc(OC)c(N2CCc3[nH]c(-c4c(F)cccc4F)cc3C2)cn1` [Example 143, 2-(2,6-Difluoro-phenyl)-5-(6-ethoxy-4-methoxy-pyridin-3-yl)-4,5,6,7-tetrahydro-1H-pyrrolo[3,2-c]pyridine]: the inhibition at 10 µM at CRAC channel was below 50%. Besides, the IC50 in assay [1] lay within 1 to 5 µM.

Usually IC50 stands for the midpoint of a concentration-inhibition curve.
